Assay: Hydrodynamic size and potential analysis
Format: physicochemical
Protocol: The hydrodynamic size distribution and electrical potential of nanomedicines including AuS-TA were evaluated using a Litesizer 500 (Anton Paar) according to the manufacturer's instructions. AuS and TA non-covalently attached to AuS were quantified by determining absorbance using UV-vis spectrophotometry (Biochrom). […] Therefore, the TA amount of Edu-MSCs-AuS-TA was measured based on the AuS-TA ratio of AuS and TA. The concentration of each solution was extrapolated using the linear standard curve for AuS and TA. The morphology, crystallinity, and EDS mapping of AuS-PEG and AuS-TA complexes were analyzed using TEM (F30, Tecnai, USA) and STEM (JEM-ARM200F, JEOL, Japan).

With `C[C@]12C=CC(=O)C=C1CC[C@H]1[C@@H]3C[C@@H](O)[C@](O)(C(=O)CO)[C@@]3(C)C[C@H](O)[C@@]12F` [TA, triamcinolone] the hydrodynamic size was 77 nm and the surface charge was “close to neutral”.
